In patent EP0580459B1, “Substituted Phenylimidazolidins, their use as medicaments and their pharmaceutical compositions containing them” (HOECHST MARION ROUSSEL, priority 1992, dated 1994):

Key:
[1] = tested on: ornithine décarboxylase rénale; assay: Androgen / anti-androgen activity by assay of renal ornithine decarboxylase in castrated mice given testosterone propionate; type: in vivo, souris mâles SWISS; conditions: with testosterone propionate 3 mg/kg s.c., kidneys 20 hours after treatment, relative to controls given testosterone propionate only; for % d'inhibition de l'ODL Test A: Test A: percutaneous route, 1,5 mg/kg in 10 µl
Experimental: 2) Détermination de l'activité androgène ou anti-androgène des produits de l'invention à l'aide du dosage de l'ornithine décarboxylase.
- Protocole de traitement
20 heures après les traitements, les animaux sont sacrifiés, les reins prélevés, puis homogénéisés à 0°C , à l'aide d'un broyeur téflon-verre dans 10 volumes de tampon Tris-HCl 50 mM (pH 7,4) contenant 250 uM de phosphate de pyridoxal, 0,1 mM EDTA, et 5 mM de dithiothreitol. L'homogenat est ensuite centrifugé à 209000 g pendant 30 mn.
A 37°C, l'ornithine décarboxylase rénale transforme un mélange isotopique d'ornithine froide et d'ornithine tritiée en putrescine froide et putrescine tritiée.
La putrescine est ensuite recueillie sur des papiers sélectifs, échangeurs d'ions. Après séchage, l'excès d'ornithine tritiée et froide non transformée est éliminé, par 3 lavages d'ammoniaque 0,1 M. Les papiers sont séchés, puis la radioactivité est comptée après addition de scintillant Aqualite.
Les résultats sont exprimés en fmoles ([…]) de putrescine tritiée formée/heure/mg de protéines.
Test A : les produits sont administrés par voie percutanée à 1,5 mg/kg sous un volume de 10 µl. Test B : les produits sont administrés par voie orale à 1 mg/kg. Test C : les produits sont administrés par voie orale à 3 mg/kg.

récepteur androgène = target: T1, récepteur androgène (Rattus norvegicus, UniProt P15207); assay: Relative binding affinity (ARL) for the androgen receptor: displacement of tritiated testosterone in prostate cytosol; set-up: species or system rats mâles Sprague. Dawley EOPS; conditions: Incubation 24 hours at 0°C; prostate cytosol of castrated rats; ARL=100 (CH)/(CX), testosterone = 100
T1 construct: Des aliquotes du surnageant obtenu (=cytosol), sont incubées 30 minutes et 24 heures à 0°C; from tissue; host or cells: prostate cytosol of castrated male Sprague-Dawley rats
T1 sequence (P15207 1-902): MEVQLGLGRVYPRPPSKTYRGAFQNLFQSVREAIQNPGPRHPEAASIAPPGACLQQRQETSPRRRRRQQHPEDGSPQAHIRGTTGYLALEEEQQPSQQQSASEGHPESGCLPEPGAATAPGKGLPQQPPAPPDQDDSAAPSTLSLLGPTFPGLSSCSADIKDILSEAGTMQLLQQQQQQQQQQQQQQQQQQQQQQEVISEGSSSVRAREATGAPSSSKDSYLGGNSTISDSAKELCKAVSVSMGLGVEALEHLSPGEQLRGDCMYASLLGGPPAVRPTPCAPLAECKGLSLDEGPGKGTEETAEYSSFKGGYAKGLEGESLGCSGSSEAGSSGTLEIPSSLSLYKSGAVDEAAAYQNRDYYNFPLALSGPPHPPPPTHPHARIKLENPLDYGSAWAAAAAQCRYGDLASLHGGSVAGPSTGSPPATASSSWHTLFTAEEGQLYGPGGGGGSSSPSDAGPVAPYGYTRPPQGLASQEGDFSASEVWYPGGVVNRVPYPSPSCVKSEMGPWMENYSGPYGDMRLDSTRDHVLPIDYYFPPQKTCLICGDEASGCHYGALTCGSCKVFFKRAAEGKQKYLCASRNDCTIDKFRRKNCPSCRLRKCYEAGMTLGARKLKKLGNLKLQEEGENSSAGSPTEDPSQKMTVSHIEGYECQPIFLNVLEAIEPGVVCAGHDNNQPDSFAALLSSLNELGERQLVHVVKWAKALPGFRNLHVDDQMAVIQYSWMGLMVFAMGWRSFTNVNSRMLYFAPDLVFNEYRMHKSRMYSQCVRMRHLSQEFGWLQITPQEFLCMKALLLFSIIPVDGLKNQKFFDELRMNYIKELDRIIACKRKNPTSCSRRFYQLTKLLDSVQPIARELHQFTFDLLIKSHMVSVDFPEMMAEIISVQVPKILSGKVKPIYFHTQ
Experimental: 1) Etude de l'affinité des produits de l'invention pour le récepteur androgène
Des rats mâles Sprague. Dawley EOPS de 180-200 g, castrés de 24 heures, sont sacrifiés, les prostates prélevées, pesées et homogénéisées à 0°C à l'aide d'un potter verre-verre, dans une solution tamponnée (Tris lOmM, saccharose 0,25M, PMSF (phénylméthanesulfonylfluoride) 0,1mM, Molybdate de sodium 20mM, HCl pH 7,4; auxquels on ajoute extemporanément 2mM de DTT (DL dithiothreitol), à raison de 1 g de tissu pour 8 ml de tampon.
L'homogénat est ensuite ultracentrifugé à 0°C, 30 minutes à 209 000 g.
Calcul de l'affinité relative de liaison (ARL).
On trace les 2 courbes suivantes : le pourcentage de l'hormone tritiée liée B/T en fonction du logarithme de la concentration de l'hormone de référence froide et B/T en fonction du logarithme de la concentration du produit froid testé. On détermine la droite d'équation I50=(B/Tmax + B/Tmin)/2. B/T max= % de l'hormone tritiée liée pour une incubation de cette hormone tritiée à la concentration (T). B/T min= % de l'hormone tritiée liée pour une incubation de cette hormone tritiée à la concentration (T) en présence d'un grand excès d'hormone froide (2500.10^-9M) .
Les intersections de la droite I50 et des courbes, permettent d'évaluer les concentrations de l'hormone de référence froide (CH) et du produit froid testé (CX) qui inhibent de 50 % la liaison de l'hormone tritiée sur le récepteur.

CC1(C)C(=O)N(c2ccc(C#N)c(C(F)(F)F)c2)C(=O)N1CCCCO [Exemple 1, 4-(4,4-diméthyl 2,5-dioxo 3-(4-hydroxybutyl) 1-imidazolidinyl) 2-(trifluorométhyl) benzonitrile]
% d'inhibition de l'ODL Test A [1]: 40%
% d'inhibition de l'ODL Test B ([1]; Test B: oral route, 1 mg/kg): 36%
ARL (affinité relative de liaison) (récepteur androgène): 31

CC1(C)C(=O)N(c2ccc(C#N)c(C(F)(F)F)c2)C(=S)N1CCO [Exemple 2, 4-(4,4-diméthyl 3-(2-hydroxyéthyl) 5-oxo 2-thioxo 1-imidazolidinyl) 2-(trifluorométhyl) benzonitrile]
% d'inhibition de l'ODL Test A [1]: 32%
% d'inhibition de l'ODL Test C ([1]; Test C: oral route, 3 mg/kg): 67%
ARL (affinité relative de liaison) (récepteur androgène): 163

CC1(C)C(=O)N(c2ccc(C#N)c(C(F)(F)F)c2)C(=S)N1CCCO [Exemple 3, 4-(4,4-diméthyl 3-(3-hydroxypropyl) 5-oxo 2-thioxo 1-imidazolidinyl) 2-(trifluorométhyl) benzonitrile]
% d'inhibition de l'ODL Test A [1]: 41%

CC1(C)C(=O)N(c2ccc(C#N)c(C(F)(F)F)c2)C(=S)N1CCCCO [Exemple 4, 4-(4,4-diméthyl 3-(4-hydroxybutyl) 5-oxo 2-thioxo 1-imidazolidinyl) 2-(trifluorométhyl) benzonitrile]
% d'inhibition de l'ODL Test A [1]: 78%
ARL (affinité relative de liaison) (récepteur androgène): 300

COCCN1C(=S)N(c2ccc(C#N)c(C(F)(F)F)c2)C(=O)C1(C)C [Exemple 5, 4-(4,4-diméthyl 3-(2-méthoxyéthyl) 5-oxo 2-thioxo 1-imidazolidinyl) 2-(trifluorométhyl) benzonitrile]
% d'inhibition de l'ODL Test A [1]: 62%
ARL (affinité relative de liaison) (récepteur androgène): 81

CC(C)N1C(=S)N(c2ccc(C#N)c(C(F)(F)F)c2)C(=O)C1(C)C [Exemple 6, 4-(4,4-diméthyl 3-(1-méthyléthyl) 5-oxo 2-thioxo 1-imidazolidinyl) 2-(trifluorométhyl) benzonitrile]
% d'inhibition de l'ODL Test A [1]: 35%
ARL (affinité relative de liaison) (récepteur androgène): 28
